Measurements taken from patent US20060063759A1, “Tricyclic steroid hormone nuclear receptor modulators” (priority 2002, published 2006).

Legend:
glucocorticoid receptor = molecular target: T1, glucocorticoid receptor (Homo sapiens, UniProt P04150); assay: Glucocorticoid Receptor Binding Assay ([3H]-dexamethasone, A549 cell extract); details: [3H]-dexamethasone binding, read-out: GR Ki
T1 construct: containing 50-200 ug of A549 cell extract and 1.86 nM [^3H]-dexamethasone; host or cells: A549 human lung epithelial cells (sonicated cell extract)
T1 sequence (P04150 1-777): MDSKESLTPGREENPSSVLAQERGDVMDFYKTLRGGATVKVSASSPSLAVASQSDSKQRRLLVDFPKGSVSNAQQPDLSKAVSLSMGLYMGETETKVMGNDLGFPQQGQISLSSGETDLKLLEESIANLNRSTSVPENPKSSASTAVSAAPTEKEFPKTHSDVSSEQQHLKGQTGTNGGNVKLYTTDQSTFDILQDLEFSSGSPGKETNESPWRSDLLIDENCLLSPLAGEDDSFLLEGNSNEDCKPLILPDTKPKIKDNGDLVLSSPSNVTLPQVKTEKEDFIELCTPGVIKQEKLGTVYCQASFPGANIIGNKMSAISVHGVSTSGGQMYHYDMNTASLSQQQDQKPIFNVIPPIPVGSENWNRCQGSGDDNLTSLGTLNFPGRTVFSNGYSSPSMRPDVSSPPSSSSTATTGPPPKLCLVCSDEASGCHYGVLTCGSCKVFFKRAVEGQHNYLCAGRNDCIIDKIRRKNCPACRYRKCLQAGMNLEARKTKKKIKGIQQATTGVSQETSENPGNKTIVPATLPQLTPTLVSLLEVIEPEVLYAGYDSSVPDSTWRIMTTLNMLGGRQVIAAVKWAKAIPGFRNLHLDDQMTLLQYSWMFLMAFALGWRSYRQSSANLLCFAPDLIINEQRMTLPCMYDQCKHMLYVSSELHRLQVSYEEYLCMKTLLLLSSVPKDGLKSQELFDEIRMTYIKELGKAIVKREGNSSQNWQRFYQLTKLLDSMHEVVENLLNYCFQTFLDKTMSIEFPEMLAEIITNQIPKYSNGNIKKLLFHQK
Method in brief: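 Displacement of [3H]-dexamethasone (1.86 nM) from glucocorticoid receptor in sonicated A549 lung epithelial cell extracts, 16 h at 4 °C, pH 7.2 molybdate-containing buffer. Bound radioactivity was scintillation-counted after charcoal/dextran stripping of free ligand.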

human MR = molecular target: T2, human MR (Homo sapiens, UniProt P08235); assay: Mineralocorticoid Receptor Binding Assay ([3H]-aldosterone); details: [3H]-aldosterone binding, human MR expressed in Sf9 cells; read-out: MR Ki
T2 construct: The full length human MR gene is cloned from a human kidney or human brain cDNA library; His tag from the pAcHLT vector (own knowledge); made in house; host or cells: Sf9 insect cells (baculovirus, pAcHLT transfer vector)
T2 sequence (P08235 1-984): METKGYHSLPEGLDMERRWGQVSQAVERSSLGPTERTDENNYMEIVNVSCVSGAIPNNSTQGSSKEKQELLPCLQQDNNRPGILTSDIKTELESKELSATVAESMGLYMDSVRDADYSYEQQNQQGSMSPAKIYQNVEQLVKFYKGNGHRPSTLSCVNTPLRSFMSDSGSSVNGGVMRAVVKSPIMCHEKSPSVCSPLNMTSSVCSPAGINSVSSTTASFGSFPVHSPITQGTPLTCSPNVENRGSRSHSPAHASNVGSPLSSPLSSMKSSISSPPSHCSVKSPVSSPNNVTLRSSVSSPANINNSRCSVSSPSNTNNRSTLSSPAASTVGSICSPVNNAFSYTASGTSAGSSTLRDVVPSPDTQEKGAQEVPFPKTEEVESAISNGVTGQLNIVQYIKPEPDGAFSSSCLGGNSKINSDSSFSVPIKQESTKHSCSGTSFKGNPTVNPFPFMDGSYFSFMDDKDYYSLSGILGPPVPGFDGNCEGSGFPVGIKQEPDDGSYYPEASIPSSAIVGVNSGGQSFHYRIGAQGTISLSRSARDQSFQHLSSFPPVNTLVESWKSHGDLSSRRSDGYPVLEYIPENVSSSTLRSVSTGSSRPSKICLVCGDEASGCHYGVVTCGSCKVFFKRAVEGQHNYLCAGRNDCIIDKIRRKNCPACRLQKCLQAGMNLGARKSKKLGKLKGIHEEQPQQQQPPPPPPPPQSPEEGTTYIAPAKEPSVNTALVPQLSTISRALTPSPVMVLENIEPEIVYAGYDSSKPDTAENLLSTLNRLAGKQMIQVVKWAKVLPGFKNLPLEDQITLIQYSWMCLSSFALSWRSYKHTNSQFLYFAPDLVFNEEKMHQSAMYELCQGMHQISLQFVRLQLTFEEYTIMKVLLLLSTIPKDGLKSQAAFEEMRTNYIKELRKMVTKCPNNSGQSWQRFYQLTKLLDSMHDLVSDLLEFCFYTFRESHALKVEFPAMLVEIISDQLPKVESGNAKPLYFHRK
Method in brief: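 Receptor source: freeze-thaw lysate of baculovirus-infected Sf9 cells carrying full-length human MR, 20-25 μg protein. Incubation ~16 h at 4 °C with shaking, pH 7.5 buffer containing 30 mM sodium molybdate and 10% glycerol.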

[1] = in combination with standard CHF therapy, patients suffering from advanced CHF; cited from earlier work

SMILES | Ki (glucocorticoid receptor) | melting point | Ki (human MR) | reduced cardiac related mortality [1] | reduced frequency of hospitalization [1]
Cn1cnc(S(=O)(=O)Nc2cccc(C=C3c4ccccc4CCc4ccccc43)c2)c1 [Example 95, 1-Methyl-1H-imidazole-4-sulfonic acid [3-(10,11-dihydro-dibenzo[a,d]cyclohepten-5-ylidenemethyl)-phenyl]-amide] | < 1000 nM | 257 °C | < 500 nM |  | 
CC(=O)S[C@@H]1CC2=CC(=O)CC[C@]2(C)[C@H]2CC[C@@]3(C)[C@@H](CC[C@@]34CCC(=O)O4)[C@H]12 [spironolactone] |  |  |  | 30% | 35%
CC(=O)Nc1ccc(C=C2c3ccccc3CCc3ccccc32)cc1 [Example 116, N-[4-(10,11-Dihydro-dibenzo[a,d]cyclohepten-5-ylidenemethyl)-phenyl]-acetamide] | < 500 nM | 134.8 °C | < 500 nM |  | 
CCCNS(=O)(=O)c1ccccc1C=C1c2ccccc2CCc2ccccc21 [Example 6, 2-(10,11-Dihydro-benzo[a,d]cyclohepten-5-ylidenemethyl)-N-propyl-benzenesulfonamide] | < 500 nM | 155.6 °C | < 500 nM |  | 
CNS(=O)(=O)c1ccc(C=C2c3ccccc3CCc3ccccc32)cc1 [Example 27, 4-(10,11-Dihydro-dibenzo[a,d]cyclohepten-5-ylidenemethyl)-N-methyl-benzenesulfonamide] | < 1000 nM | 189.7 °C | < 500 nM |  | 
O=S(=O)(Nc1cccc(C=C2c3ccccc3CCc3ccccc32)c1)c1ccccc1 [Example 93, N-[3-(10,11-Dihydrodibenzo[a,d]cyclohepten-5-ylidenemethyl)-phenyl]-benzenesulfonamide] | < 500 nM | 121.9 °C | < 500 nM |  | 
COc1cccc(C=C2c3ccccc3CCc3ccccc32)c1OC [Example 35] | < 500 nM | 130.6 °C | < 500 nM |  | 

More lines, main results first:

Ki (glucocorticoid receptor) | melting point | Ki (human MR) | SMILES | reduced cardiac related mortality [1] | reduced frequency of hospitalization [1]
< 500 nM | 187.7 °C | < 500 nM | CC(C)S(=O)(=O)Nc1cccc(C=C2c3ccccc3CCc3ccccc32)c1 [Example 92, Propane-2-sulfonic acid [3-(10,11-dihydro-dibenzo[a,d]cyclohepten-5-ylidenemethyl)-phenyl]-amide] |  | 
< 10000 nM | 92.5 °C | < 500 nM | FC(F)c1cccc(C=C2c3ccccc3CCc3ccccc32)c1 [Example 72, 5-(3-Difluoromethyl-benzylidene)-10,11-dihydro-5H-dibenzo[a,d]cycloheptene] |  | 
< 500 nM | 153.9 °C | < 500 nM | CNS(=O)(=O)c1cccc(C=C2c3ccccc3CCc3ccccc32)c1 [Example 1, 3-(10,11-Dihydro-dibenzo[a,d]cyclohepten-5-ylidenemethyl)-N-methyl-benzenesulfonamide] |  | 
< 500 nM | 121.8 °C | < 500 nM | OCc1ccccc1C=C1c2ccccc2CCc2ccccc21 [Example 74, [2-(10,11-Dihydro-dibenzo[a,d]cyclohepten-5-ylidenemethyl)-phenyl]-methanol] |  | 
